Test results published in paper PMC6071666 (Bioorganic & medicinal chemistry, 2018).

Target: LSD1 (Homo sapiens, UniProt O60341)
Test: in vitro demethylation of H3K4me2 peptide by GST-LSD1, mass spectrometry readout
Format: biochemical

For CC(C)(C)OC(=O)NC1CC1c1ccc(OC(=O)OC(C)(C)C)cc1 (stereo not shown) [compound 3, tert-butyl 2-(4-(tert-butoxycarbonyloxy)phenyl)cyclopropylcarbamate], the IC50 was about 21.2 µM.
